Results reported in patent US20110015264A1 (priority 2006, published 2011).
Where two headings read alike, the source gives them in different places.

Legend:
[1] = test system: A/NWS/33 (H1N1) influenza virus; details: mouse, in vivo
[2] = test system: A/Victoria/3/75 (H3N2) influenza virus; set-up: species or system BALB/c mice; details: mouse, in vivo
[3] = biological target: neuraminidase enzyme N9 from H1N9 virus (Influenza A virus, UniProt P03472); assay: biochemical; set-up: species or system A/H1N9 (NWS/G70) avian virus; details: for IC90: read-out: IC90 against N9 enzyme
H1N1 neuraminidase = H1N1 neuraminidase (UniProt P03470); details: read-out: IC50 against H1N1; Bantia et al. 2001; cited from earlier work
influenza = details: human, in vivo, po; cited from earlier work
influenza virus = test system: influenza virus; set-up: species or system BALB/c mice; details: mouse, in vivo
N9 neuraminidase = N9 neuraminidase (Influenza A virus, UniProt P03472); type: binding, A/H1N9 (NWS/G70) avian virus
Sequence of N9 neuraminidase (P03472 whole entry, looked up): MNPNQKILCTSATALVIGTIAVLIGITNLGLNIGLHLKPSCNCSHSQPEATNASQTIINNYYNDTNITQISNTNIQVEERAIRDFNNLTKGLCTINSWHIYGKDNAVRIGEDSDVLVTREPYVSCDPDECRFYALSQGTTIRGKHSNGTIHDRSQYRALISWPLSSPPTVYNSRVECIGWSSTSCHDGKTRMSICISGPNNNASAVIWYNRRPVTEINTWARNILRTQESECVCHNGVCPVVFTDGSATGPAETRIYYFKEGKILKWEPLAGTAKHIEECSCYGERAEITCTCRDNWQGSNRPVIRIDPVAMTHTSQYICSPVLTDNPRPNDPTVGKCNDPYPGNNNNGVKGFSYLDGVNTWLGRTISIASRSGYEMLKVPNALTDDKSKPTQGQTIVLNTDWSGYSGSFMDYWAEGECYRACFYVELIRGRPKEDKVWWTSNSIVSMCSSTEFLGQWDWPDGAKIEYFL

Sequence of neuraminidase enzyme N9 from H1N9 virus (P03472 whole entry, looked up): as above
Sequence of H1N1 neuraminidase (P03470 whole entry, looked up): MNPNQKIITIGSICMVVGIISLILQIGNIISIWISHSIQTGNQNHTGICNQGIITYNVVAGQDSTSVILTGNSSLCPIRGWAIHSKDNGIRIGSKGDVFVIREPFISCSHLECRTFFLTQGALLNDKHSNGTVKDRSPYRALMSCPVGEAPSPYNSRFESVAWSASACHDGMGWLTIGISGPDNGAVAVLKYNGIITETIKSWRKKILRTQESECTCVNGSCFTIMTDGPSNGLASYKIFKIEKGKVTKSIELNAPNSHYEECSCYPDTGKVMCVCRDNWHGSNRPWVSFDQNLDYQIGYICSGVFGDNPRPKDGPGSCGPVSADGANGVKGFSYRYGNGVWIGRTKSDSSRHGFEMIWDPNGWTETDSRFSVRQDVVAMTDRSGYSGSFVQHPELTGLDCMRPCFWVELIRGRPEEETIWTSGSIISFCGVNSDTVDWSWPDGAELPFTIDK

## CCOC(=O)C1=C[C@@H](OC(CC)CC)[C@H](NC(C)=O)[C@@H](N)C1 [oseltamivir, reference compound]
[1]
  survival rate: 10%
[1]; 10 mg/kg
  mice survived: 3 out of 10
  protection against lethality: 30%
  weight loss: about 4 g
  weight loss and mortality: no efficacy
  weight loss, % of initial weight: 25 % of initial weight
[1]; po, 2 mg/kg/day
  greatest mean weight loss at day 8: 1.34 g
[1]; po, 10 mg/kg/day
  greatest mean weight loss at day 8: 0 g
[2]; po
  mean weight loss by day 8: about 5.1 g
  mean weight loss by day 8, % of weight: 28%
  survived (protection against lethality): 9/10

## CCC(CC)C(NC(C)=O)[C@@H]1[C@H](O)[C@@H](C(=O)O)C[C@H]1NC(=N)N (stereo partly drawn) [peramivir, (1S,2S,3R,4R)-3-(1-Acetamido-2-ethylbutyl)-4-guanidino-2-hydroxycyclopentane-carboxylic acid]
[1]
  prevention of weight loss in infected mice: effective in preventing weight loss
  survival: 40%
  survival rate: 50%
[1]; 1 mg/kg
  effectiveness in terms of survival: not effective
  mean days to death: significant increase
[1]; 10 mg/kg
  weight loss and mortality: significantly reduced
  weight loss by day 5: no weight loss
  weight loss, % of initial weight: about 1.7 % of initial weight
[1]; 20 mg/kg
  signs of drug-related toxicity: No signs of drug-related toxicity
[1]; po, 1 mg/kg/day
  survival: 60%
[1]; po, 10 mg/kg
  weight loss by day 5: 0.22 g
[1]; po, 10 mg/kg/day
  protection against lethality: Complete protection against lethality
[3]
  IC50: 1.3 ± 0.4 nM
  IC90: 5 nM
H1N1 neuraminidase
  IC50: 0.11 nM
influenza
  inhibitory effect on influenza in humans: undesirably low inhibitory effect
Influenza virus
  effectiveness of delayed treatment: highly effective
  protection against lethality: complete protection against lethality
  weight loss by day 5: no significant weight loss
Influenza virus; po
  weight loss by day 5: no significant weight loss
[2]
  mean weight loss by day 8: 4.5 g
  mean weight loss by day 8, % of weight: 25%
  survived (protection against lethality): 9/10
N9 neuraminidase
  t1/2 of dissociation from N9 neuraminidase: > 24 h

## CC(=O)N[C@H]1[C@H]([C@H](O)[C@H](O)CO)OC(C(=O)O)=C[C@@H]1N=C(N)N [zanamivir, reference compound]
[3]
  IC90: 10 nM
N9 neuraminidase
  t1/2 of dissociation from N9 neuraminidase: 1.25 h
